Measurements published in US9434686B2, “Deacetylase inhibitors and uses thereof” (President and Fellows of Harvard College, priority 2008, dated 2016).
Values joined by “and” are separate entries in the source; they are usually repeats but may differ in a detail not shown here. Equal entries are not always repeated. Where two headings read alike, the source gives them in different places.

Experiments:
[1] = Pharmacokinetics of WT-161 in CD-1 mice after intravenous administration (plasma, LC-MS/MS); assay type: in vivo
Method: WT-III-161 (Wt: 458.55 for free base) was dissolved in 25% DMSO, 25% Cremophor EL, and 50% saline to yield final concentration at 2 mg/mL for intravenous administration (pH=6-7). The solution was clear and light yellow, and the concentration of WT-III-161 in it was confirmed by HPLC method with an accuracy of 116.92% (Table I).
Study design, animal selection, handling and treatment were in accordance with the Shanghai Medicilon Inc. study protocol (Shanghai Medicilon Inc Study No. BRD0701). Male CD0-1 mice (body weight 23 g to 27 g) were used in this study. Before the pharmacokinetic studies, animals were randomly assigned to the treatment groups (3 animals per timepoint). Ten additional mice were used to collect plasma for calibration curves.
[…] All the samples and the dose formulation were stored at −20° C. until bioanalysis or transportation to sponsor.
The concentrations of WT-161 in plasma were determined using a high pressure liquid chromatography/mass spectrometry (LC-MS/MS) method.
The LC system comprised an Aligent liquid chromatograph equipped with an isocratic pump (1100 series), an autosampler (1100 series) and a degasser (1100 series). Mass spectrometric analysis was performed using an API3000 (triple quadrupole) instrument from AB Inc (Canada) with an ESI interface. The data acquisition and control system were created using Analyst 1.4 software from ABI Inc. Acetonitrile and methanol were HPLC grade. All other solvents and chemicals were analytical grade or better.
Pharmacokinetic software DAS 2.0 (Gaosi Data Analysis Inc., Wuhn, China) was used.
Chromatographic conditions: ColumnL Synergi Fusion-RP, 4 μm (150 mm×2.0 mm); Mobile phase: 0.1% formic acid:methanol:acetonitrile (5:90:5); Elution rate: 350 μL/min; Column temperature: 25° C.; Injection volume: 2 μL.
Scan type: positive MRM; Ion Source: Turbo spray; Ionization mode: ESI; Nebulize gas: 8 L/min; Curtain gas: 8 L/min; Collision gas: 4 L/min; Ionspray voltage: 5000 V; Temperature: 500° C.
Plasma samples (0.1 mL) were transferred to Eppendorff tubes, then 20 μL of methanol, 500 μL IS solutions (50 ng/mL) were added to it. After vortexing for 1 minute and centrifuging for 5 min at 15,000 rpm, 2 μL of supernatant was injected onto the LC-MS/MS.
The concentration in plasma below the limit of quantitation (LOQ=5 ng/mL) were designated as zero. The pharmacokinetic data analysis was performed using noncompartmental analysis modules in DAS 2.0.

HDAC6 [2] = biological target: T1, HDAC6 (Homo sapiens, UniProt Q9UBN7); test: High content acetylation assay (AcTubulin vs AcHistone) in cultured cells; assay type: cell-based; settings: dose-range, TDAC activity as surrogate for HDAC6 inhibition
T1 construct: endogenous in cells
T1 sequence (Q9UBN7 1-1215): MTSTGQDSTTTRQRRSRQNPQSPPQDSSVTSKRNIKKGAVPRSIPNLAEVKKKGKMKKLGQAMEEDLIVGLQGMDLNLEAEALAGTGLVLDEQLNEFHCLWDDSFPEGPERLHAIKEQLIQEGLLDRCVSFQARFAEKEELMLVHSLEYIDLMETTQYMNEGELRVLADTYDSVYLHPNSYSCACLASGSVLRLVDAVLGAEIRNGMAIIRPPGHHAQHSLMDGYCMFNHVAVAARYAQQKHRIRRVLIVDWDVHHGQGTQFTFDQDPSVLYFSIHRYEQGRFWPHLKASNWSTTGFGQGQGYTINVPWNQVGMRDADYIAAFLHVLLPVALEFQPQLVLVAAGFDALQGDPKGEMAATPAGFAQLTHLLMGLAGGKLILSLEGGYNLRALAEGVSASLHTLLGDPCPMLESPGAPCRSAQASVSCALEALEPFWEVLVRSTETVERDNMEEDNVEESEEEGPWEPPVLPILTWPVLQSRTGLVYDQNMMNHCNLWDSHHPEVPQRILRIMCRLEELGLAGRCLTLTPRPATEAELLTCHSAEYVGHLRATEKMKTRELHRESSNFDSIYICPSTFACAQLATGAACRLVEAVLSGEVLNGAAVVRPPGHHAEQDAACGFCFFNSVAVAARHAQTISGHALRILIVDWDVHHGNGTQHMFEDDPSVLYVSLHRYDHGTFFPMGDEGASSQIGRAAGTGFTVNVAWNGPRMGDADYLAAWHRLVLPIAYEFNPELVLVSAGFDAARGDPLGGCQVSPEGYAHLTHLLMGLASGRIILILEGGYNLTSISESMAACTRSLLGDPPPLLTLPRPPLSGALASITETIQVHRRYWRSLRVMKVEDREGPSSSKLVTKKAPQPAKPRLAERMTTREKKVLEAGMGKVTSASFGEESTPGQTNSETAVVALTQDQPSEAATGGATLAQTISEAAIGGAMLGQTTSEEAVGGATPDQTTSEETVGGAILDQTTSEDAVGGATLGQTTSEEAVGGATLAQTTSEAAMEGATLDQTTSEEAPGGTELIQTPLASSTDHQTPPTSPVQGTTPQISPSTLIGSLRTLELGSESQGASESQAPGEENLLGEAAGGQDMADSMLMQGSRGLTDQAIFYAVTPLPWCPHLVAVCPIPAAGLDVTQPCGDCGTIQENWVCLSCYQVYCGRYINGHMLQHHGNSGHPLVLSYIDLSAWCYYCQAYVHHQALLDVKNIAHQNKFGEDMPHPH
Method: FIG. 2. High-throughput, high-content, quantitative detection method for identifying HDAC inhibitors. Cells are seeded in 384-well plates (2,000 cells/well) and treated with test compound, fixed, and then stained with Hoechst (nuclei), primary anti-AcTubulin monoclonal antibody and anti-AcHistone polyclonal antibody, then with compatible fluorophore-conjugated secondary antibodies. After automated image acquisition a custom analysis script identifies and masks cells, then derives quantitative fluorescence data from FITC (AcTubulin) and rhodamine (AcHistone) channels (MetaXPress; Molecular Devices).
FIG. 3. WT-161 Induction of AcTubulin (Red) and AcHistone (Blue) by HCS. As described in FIG. 2, the high content acetylation assay was employed to determine the comparative induction of acetylated histones versus acetylated tubulin across a dose-range of WT-161.
FIG. 4. […] Dose-response data from FIG. 3 have been used to generate EC50 values of cellular histone and tubulin acetylation effects of WT-161. […] HDAC activity is used to indicate biological activity of proteins mediating histone deacetylation, as this is a cellular assay measuring global effects on acetylation. TDAC activity is a surrogate measurement for HDAC6 inhibition in cultured cells.

HDAC6 [3] = biological target: T1, HDAC6; test: HDAC biochemical (homogeneous) assay, inhibitory constants
Method: FIG. 5. HDAC Biochemical Assay Schema. 7-amino-4-methylcoumarin (7AMC) is linked by an amide bond to acetylated lysine in the context of an isoform-selective substate. Pictured here is a derived substrate for HDACs 1, 2, 3, and 6. HDAC hydrolyzes acetylated lysine, which is then a substrate for rapid trypsin digestion releasing 7AMC (shown in green) which is detected in real time by a fluorescence plate reader. Linear data captured after a pre-incubation phase (30 minutes) provides a kinetic assessment of deacetylase activity.
FIG. 6. […] Robust assay for HDACs 1, 2, 3, 5, 6, and 8 have been established.

[4] = test system: human multiple myeloma cells; test: Cell proliferation (Cell TiterGlo) synergy of HDAC inhibitor with bortezomib; assay type: cell-based; settings: two cultures of human multiple myeloma cells, bortezomib 0, 2.5 nM, 5.0 nM
Method: FIG. 7. […] Synergistic effects on cell proliferation were determined by varying concentrations of each HDAC inhibitor in the presence of varied concentrations of the proteasome inhibitor, bortezomib. Two cultures of human multiple myeloma cells were used for this study. Data presented are the IC50 data for the HDAC inhibitor studied (first column) in the presence of increasing concentrations of bortezomib (0, 2.5 nM, or 5.0 nM). The measurement of cell proliferation used is the Cell TiterGlo assay (Promega), which uses bioluminescence to report on ATP content in cultured cells.

[5] = male, mouse, CD-1 mice, IV 5 mg/kg, plasma

## O=C(CCCCCCC(=O)N/N=C/c1ccc(N(c2ccccc2)c2ccccc2)cc1)NO [WT-161]
[1]; 0.033 hr post-dose, IV 5 mg/kg, 5 mg/kg
  Concentration in plasma, individual mice 1-3: 13606.91 ng/mL and 27492.70 ng/mL and 14890.74 ng/mL
[1]; 0.083 hr post-dose, IV 5 mg/kg, 5 mg/kg
  Concentration in plasma, individual mice 1-3: 6082.36 ng/mL and 8591.87 ng/mL
[1]; 0.25 hr post-dose, IV 5 mg/kg, 5 mg/kg
  Concentration in plasma, individual mice 1-3: 1762.06 ng/mL and 1336.63 ng/mL
[1]; 0.5 hr post-dose, IV 5 mg/kg, 5 mg/kg
  Concentration in plasma, individual mice 1-3: 780.44 ng/mL and 1152.36 ng/mL
[1]; 1 hr post-dose, IV 5 mg/kg, 5 mg/kg
  Concentration in plasma, individual mice 1-3: 122.63 ng/mL and 57.74 ng/mL and 263.97 ng/mL
[1]; 2 hr post-dose, IV 5 mg/kg, 5 mg/kg
  Concentration in plasma, individual mice 1-3: 87.92 ng/mL and 114.00 ng/mL
[1]; 3 hr post-dose, IV 5 mg/kg, 5 mg/kg
  Concentration in plasma, individual mice 1-3: 25.12 ng/mL and 9.38 ng/mL and 14.37 ng/mL
[1]; 4 hr post-dose, IV 5 mg/kg, 5 mg/kg
  Concentration in plasma, individual mice 1-3: 74.08 ng/mL and 20.79 ng/mL and 7.37 ng/mL
[1]; 6 hr post-dose, IV 5 mg/kg, LOQ 5 ng/mL, 5 mg/kg
  Concentration in plasma, individual mice 1-3: BLQ and 6.57 ng/mL
[1]; 8 hr post-dose, IV 5 mg/kg, LOQ 5 ng/mL
  Concentration in plasma, individual mice 1-3: BLQ
[1]; 24 hr post-dose, IV 5 mg/kg, LOQ 5 ng/mL
  Concentration in plasma, individual mice 1-3: BLQ
[1]; CD-1 mice, IV bolus 5 mg/kg
  Systemic clearance as percent of mouse hepatic blood flow (5.40 L/hr/kg): 30.37%
[1]; male, CD-1, mouse, plasma, iv, 5 mg/kg, 0.033 hr post-dose, IV 5 mg/kg
  concentration at 0.033 hr: 18700 ng/mL
[1]; male, CD-1, mouse, plasma, iv, 5 mg/kg, 0.083 hr post-dose, IV 5 mg/kg, read-out: Concentration in plasma, Mean
  concentration at 0.083 hr: 8000 ng/mL
[1]; male, CD-1, mouse, plasma, iv, 5 mg/kg, 0.083 hr post-dose, IV 5 mg/kg, read-out: Concentration in plasma, individual mice 1-3
  concentration at 0.083 hr: 9330 ng/mL
[1]; male, CD-1, mouse, plasma, iv, 5 mg/kg, 0.25 hr post-dose, IV 5 mg/kg, read-out: Concentration in plasma, Mean
  concentration at 0.25 hr: 1760 ng/mL
[1]; male, CD-1, mouse, plasma, iv, 5 mg/kg, 0.25 hr post-dose, IV 5 mg/kg, read-out: Concentration in plasma, individual mice 1-3
  concentration at 0.25 hr: 2190 ng/mL
[1]; male, CD-1, mouse, plasma, iv, 5 mg/kg, 0.5 hr post-dose, IV 5 mg/kg, read-out: Concentration in plasma, Mean
  concentration at 0.5 hr: 956 ng/mL
[1]; male, CD-1, mouse, plasma, iv, 5 mg/kg, 0.5 hr post-dose, IV 5 mg/kg, read-out: Concentration in plasma, individual mice 1-3
  concentration at 0.5 hr: 934 ng/mL
[1]; male, CD-1, mouse, plasma, iv, 5 mg/kg, 1 hr post-dose, IV 5 mg/kg
  concentration at 1 hr: 148 ng/mL
[1]; male, CD-1, mouse, plasma, iv, 5 mg/kg, 2 hr post-dose, IV 5 mg/kg, read-out: Concentration in plasma, Mean
  concentration at 2 hr: 95.2 ng/mL
[1]; male, CD-1, mouse, plasma, iv, 5 mg/kg, 2 hr post-dose, IV 5 mg/kg, read-out: Concentration in plasma, individual mice 1-3
  concentration at 2 hr: 83.6 ng/mL
[1]; male, CD-1, mouse, plasma, iv, 5 mg/kg, 3 hr post-dose, IV 5 mg/kg
  concentration at 3 hr: 16.3 ng/mL
[1]; male, CD-1, mouse, plasma, iv, 5 mg/kg, 4 hr post-dose, IV 5 mg/kg
  concentration at 4 hr: 34.1 ng/mL
[1]; male, CD-1, mouse, plasma, iv, 5 mg/kg, 6 hr post-dose, IV 5 mg/kg, BLQ designated as zero, read-out: Concentration in plasma, Mean
  concentration at 6 hr: 4.15 ng/mL
[1]; male, CD-1, mouse, plasma, iv, 5 mg/kg, 6 hr post-dose, IV 5 mg/kg, LOQ 5 ng/mL, read-out: Concentration in plasma, individual mice 1-3
  concentration at 6 hr: 5.87 ng/mL
[1]; male, CD-1, mouse, plasma, iv, 5 mg/kg, CD-1 mice, IV 5 mg/kg, read-out: Cmax
  Cmax: 18700 ng/mL
[1]; male, CD-1, mouse, plasma, iv, 5 mg/kg, IV, nominal dose 5 mg/kg, read-out: Cmax (at 2 minutes after dosing)
  Cmax: 18700 ng/mL
[1]; male, mouse, plasma, CD-1 mice, IV 5 mg/kg
  Tmax: 1.8 min
[1]; male, mouse, plasma, CD-1 mice, IV 5 mg/kg, read-out: CLZ (systemic clearance) (converted)
  clearance: 27.3 mL/min/kg
[1]; male, mouse, plasma, CD-1 mice, IV 5 mg/kg, read-out: MRT(0-∞)
  MRT inf: 19.8 min
[1]; male, mouse, plasma, CD-1 mice, IV 5 mg/kg, read-out: T1/2z (half-life) (converted)
  half-life: 84.6 min
[1]; male, mouse, plasma, CD-1 mice, IV 5 mg/kg, read-out: VZ (volume of distribution at terminal phase)
  Vd: 3.33 L/kg
[1]; [5]
  AUC(0-inf): 3050 ng·h/mL
  AUC(0-t): 3020 ng·h/mL
[1]; mice, IV 5 mg/kg
  Tissue distribution: distributes well in tissues
  Volume of distribution as fold of total body water (0.73 L/kg): 4.56 fold
HDAC6 [2]
  Comparative induction of acetylated tubulin versus acetylated histones (cellular selectivity): Selective Inhibition of HDAC6
HDAC6 [3]
  Inhibitory constant (Ki) for HDAC6, in words: Potent inhibition of HDAC6
  Selectivity among HDACs 1, 2, 3, 5, 6, 8, in words: Selective Inhibition of HDAC6
[4]
  Synergy with bortezomib on cell proliferation: most pronounced synergy

## O=C(CCCCCCC(=O)Nc1ccc([C@H]2O[C@@H](CSc3nc(-c4ccccc4)c(-c4ccccc4)o3)C[C@@H](c3ccc(CO)cc3)O2)cc1)NO [tubacin, reference compound]
[4]
  Synergy with bortezomib on cell proliferation: most pronounced synergy
